According to PubChem BioAssay AID1963437 (Molecular Pharmacology Branch, DTP, NCI, 2024):

System: OVCAR-8 complex spheroid, growth inhibition
Experiment: Anticancer human tumor OVCAR-8 cell line growth inhibition [Asc];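 also: spheroids exposed to agents for 7 days before readout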;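 as to viability, T/C: percent viability relative to DMSO vehicle wells taken as 100%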
Settings: for IC50: curve of first compound; for viability, T/C: stronger effect = lower value
Outline: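 Stromal components (HUVEC and hMSC) are co-assembled with the cancer cells into multicellular spheroids. Drugs are then added singly or paired, at concentrations falling by half-log increments from a clinically achievable maximum, capped at 10 microM without known Cmax.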

CCN1CCN(Cc2ccc(Nc3ncc(F)c(-c4cc(F)c5nc(C)n(C(C)C)c5c4)n3)nc2)CC1 + CCN1C(C(=O)NC23CCC(C(=O)O)(CC2)CC3)C(c2cccc(Cl)c2F)C2(C(=O)Nc3cc(Cl)ccc32)C12CCCCC2
IC50 (second compound 0.00949 µM): > 1000 nM | IC50 (second compound 0.03 µM): > 1000 nM | IC50 (second compound 0.0949 µM): > 1000 nM | IC50 (second compound 0.3 µM): > 1000 nM | IC50 (second compound 0.949 µM): > 1000 nM | IC50 (second compound 3 µM): > 1000 nM | viability, T/C (second compound 0.00949 µM, first compound 0.00316 µM): 85.2% | viability, T/C (second compound 0.00949 µM, first compound 0.01 µM): 89.5% | viability, T/C (second compound 0.00949 µM, first compound 0.0316 µM): 80.1% | viability, T/C (second compound 0.00949 µM, first compound 0.1 µM): 100% | viability, T/C (second compound 0.00949 µM, first compound 0.316 µM): 90.2% | viability, T/C (second compound 0.00949 µM, first compound 1 µM): 107% | viability, T/C (second compound 0.03 µM, first compound 0.00316 µM): 98.1% | viability, T/C (second compound 0.03 µM, first compound 0.01 µM): 84.4% | viability, T/C (second compound 0.03 µM, first compound 0.0316 µM): 102% | viability, T/C (second compound 0.03 µM, first compound 0.1 µM): 89.4% | viability, T/C (second compound 0.03 µM, first compound 0.316 µM): 97.5% | viability, T/C (second compound 0.03 µM, first compound 1 µM): 117% | viability, T/C (second compound 0.0949 µM, first compound 0.00316 µM): 79.9% | viability, T/C (second compound 0.0949 µM, first compound 0.01 µM): 92.2% | viability, T/C (second compound 0.0949 µM, first compound 0.0316 µM): 89.8% | viability, T/C (second compound 0.0949 µM, first compound 0.1 µM): 98.6% | viability, T/C (second compound 0.0949 µM, first compound 0.316 µM): 95.6% | viability, T/C (second compound 0.0949 µM, first compound 1 µM): 126% | viability, T/C (second compound 0.3 µM, first compound 0.00316 µM): 89.7% | viability, T/C (second compound 0.3 µM, first compound 0.01 µM): 82.2% | viability, T/C (second compound 0.3 µM, first compound 0.0316 µM): 93.1% | viability, T/C (second compound 0.3 µM, first compound 0.1 µM): 93.7% | viability, T/C (second compound 0.3 µM, first compound 0.316 µM): 114% | viability, T/C (second compound 0.3 µM, first compound 1 µM): 121% | viability, T/C (second compound 0.949 µM, first compound 0.00316 µM): 97.9% | viability, T/C (second compound 0.949 µM, first compound 0.01 µM): 86.6% | viability, T/C (second compound 0.949 µM, first compound 0.0316 µM): 87.5% | viability, T/C (second compound 0.949 µM, first compound 0.1 µM): 111% | viability, T/C (second compound 0.949 µM, first compound 0.316 µM): 90.6% | viability, T/C (second compound 0.949 µM, first compound 1 µM): 126% | viability, T/C (second compound 3 µM, first compound 0.00316 µM): 98.5% | viability, T/C (second compound 3 µM, first compound 0.01 µM): 112% | viability, T/C (second compound 3 µM, first compound 0.0316 µM): 117% | viability, T/C (second compound 3 µM, first compound 0.1 µM): 118% | viability, T/C (second compound 3 µM, first compound 0.316 µM): 123% | viability, T/C (second compound 3 µM, first compound 1 µM): 119%
